Marks after values point to notes of the source that are not given here.

Here are results for three molecules from patent US20020025929A1, “METHOD OF BUILDING AND MAINTAINING BONE” (priority 1997, published 2002).

Data set [1] concerns osteopenic ovariectomized rats. The experiment in a line: Static and dynamic histomorphometry of L-1 vertebra. It counts as in vivo, Sprague-Dawley rats. The following applies: OVX rats; for BFR/BS (bone formation rate) / BFR/TV (bone formation rate) / BV/TV (cancellous bone volume) / MAR (mineral apposition rate) / MS/BS (mineralizing surface) / Tb.N (trabecular number) / Tb.Sp (trabecular separation) / Tb.Th (trabecular thickness): L-1 vertebra, mean ± SEM; for BV/TV, trabecular thickness, trabecular number of L-1 vertebra (in words): second study; for MAR of L-1 vertebra (in words): compound 1a 0.01-1 mg/kg, EE2. The method, then:
Oral administration was by gavage in a vehicle comprising 1 mL/kg of body weight of a 20% aqueous solution of hydroxypropyl-β-cyclodextrin. Compound 1a was administered by gavage in a vehicle of 1 mL/kg of body weight of a 20% aqueous solution of cyclodextrin. The estrogen-treated control animals were administered 0.1 mg/kg/day 17α-ethynyl estradiol by gavage.
Subcutaneous administration of PTH(1-34) was by injection of an acidified saline vehicle (0.001 N HCl and 2% heated-inactivated rat serum in physiological saline (Butler Co., Columbus, Ohio, USA).
For histomorphometry, L-1 vertebra were trimmed, using a low-speed diamond saw (Buehler Ltd., Lake Bluff, Ill.) and fixed in 70% ethanol. Specimens were stained for 4 days in Villanueva osteochrome bone stain (Polysciences Inc., Warrington, Pa.), destained, dehydrated in a graded series of alcohols, and defatted in acetone. L-1 vertebra were then infiltrated with methyl methacrylate (as described by Schenk et al. 1984) and embedded in a 75 ml: 19 ml: 2.5 g mixture of methyl methacrylate: dibutyl phthalate: benzoyl peroxide (Kodak, Rochester, N.Y.) and polymerized at room temperature. Longitudinal sections (4 and 8 μm) were cut on a Reichert-Jung 2065 microtome (Magee Scientific Inc., Dexter, Mich.). The 4 μm sections were stained with 6% silver nitrate (Von Kossa stain) before coverslipping; the 8 μm thick sections were mounted unstained for dynamic measurements. Sections were glued onto slides dipped in 0.5% gelatin, dried overnight, and coverslipped with Eukitt.
Histomorphometric measurements were made using an Optiphot-2 fluorescence microscope (Nikon, Melville, N.Y.) and a semi-automatic digitizing system (SummaSketch III, Summagraphics Co., Seymour, Conn.; KSS Image Analysis, KSS Scientific Consultants, Magna Utah) coupled to a PowerPC 7100/66 (Apple Computer, Cupertino, Calif.), using the image capture functions of NIH Image 1.59 (NIH, Bethesda, Md.). For L-1, the entire marrow region within the cortical shell was measured to derive trabecular bone parameters. Specifically, measurements were made of cancellous bone volume (BV/TV, %), trabecular thickness (Tb.Th, μm), number (Tb.N, #/mm) and separation (Tb.Sp, μm), mineralizing surface, mineral apposition rate, and bone formation rate, as previously described (Frost 1983; Jee et al. 1985; Parfitt et al., 1987).
In a second study, virgin Sprague-Dawley rats were bilaterally ovariectomized (except for the sham-operated group), the ovariectomized animals randomized, and allowed to lose bone for one month prior to treatment in the manner described above. The animal groups, each containing 7-8 animals, included sham-operated animals (SHAM); bilaterally ovariectomized animals (OVX); bilaterally ovariectomized animals treated with 0.01, 0.3 or 1 mg/kg/day of compound 1a, respectively, for three months; bilaterally ovariectomized animals treated subcutaneously with PTH(1-34) at a dose of 10 μg/kg/day for three months; bilaterally ovariectomized animals treated subcutaneously with PTH(1-34) at a dose of 10 μg/kg/day and orally with compound 1a at a dose of 0.3 mg/kg/day, both compounds administered for three months; bilaterally ovariectomized animals treated subcutaneously with PTH(1-34) at a dose of 10 μg/kg/day for forty-five days followed by gavage administration of vehicle for forty-five days; bilaterally ovariectomized animals treated subcutaneously with PTH(1-34) at a dose of 10 μg/kg/day for forty-five days followed by oral administration of only compound 1a at a dose of 0.3 mg/kg/day for forty-five days; and bilaterally ovariectomized animals treated with 17α-ethynyl estradiol administered orally at a dose of 0.1 mg/kg/day.

A further data set concerns ovariectomized rats. Kind of data set: Uterine wet weight of ovariectomized rats. It counts as in vivo, Sprague-Dawley female rats. As to conditions: OVX rats; compound 1a 0.003-3 mg/kg; 17α-ethynyl estradiol 0.1 mg/kg. As to the method: Following treatment with the test compounds, the rats were anesthetized and subjected to cardiac puncture and euthanized by CO2 inhalation. Uteri were removed and wet weight were determined on a Mettler balance to evaluate ovariectomy and efficacy of treatment with estrogen. Blood samples were allowed to clot at 4° C. for 2 hr before centrifugation at 2,000 g for 10 min. Serum were collected and stored at −70° C. before analysis. Serum cholesterol was assayed using a high performance calorimetric assay (Boehringer Mannheim Biochemicals, Indianapolis, Ind.). Tibia and femora were removed, cleaned of soft-tissue, fixed in 50% ethanol/ saline, and stored at 4° C. Vertebra L1-6 were removed and analyzed by QCT, histomorphometry, and biomechanics.
In the first study, six-month old virgin Sprague-Dawley female rats weighing about 300 g each were maintained on a 12 hr light/12 hr dark cycle at 22° C. with ad lib access to food (TD 89222 diet containing 0.5% calcium and 0.4% phosphorus, Teklad, Madison, Wis., USA), Except for sham-operated control animals, bilateral ovariectomies were performed on the test animals. In the case of the sham-operated animals, the surgical ovariectomization technique was followed, but the ovaries were left intact to provide a control for assessing any effect which might be due to the surgical trauma. […]

The mark [2] stands for this setting: Cmpd 1a 0.01 mg/kg/day oral, 3 months.
[3] abbreviates: Cmpd 1a 0.3 mg/kg/day oral, 3 months.
Where [4] appears, read: Cmpd 1a 1 mg/kg/day oral, 3 months.
The mark [5] stands for this setting: 3 months: PTH (1-34) 10 μg/kg/day s.c., PTH + 1a 0.3 mg/kg/day oral, EE2 0.1 mg/kg/day oral.
Where [6] appears, read: PTH (1-34) 10 μg/kg/day s.c. 45 days, then vehicle or 1a 0.3 mg/kg/day oral 45 days.

On to `COc1ccc(-c2sc3cc(O)ccc3c2Oc2ccc(OCCN3CCCCC3)cc2)cc1` [Compound 1a, 6-hydroxy-2-(4-methoxyphenyl)-3-[4-(2-piperidin-1-ylethoxy)phenoxy]-benzo[b]thiophene], for which, in data set [1] (setting [2]), the “BFR/BS (bone formation rate)” value amounted to 11.45 ± 1.9 μ/d × 100, the “BFR/TV (bone formation rate)” value is reported as 40.30 ± 11.41 %/y, the “BV/TV (cancellous bone volume)” value was 24.4 ± 5.9^s % and the “MAR (mineral apposition rate)” value is 0.72 ± .06 μ/d. In addition, in data set [1] (setting [2]), the “MS/BS (mineralizing surface)” value is 15.90 ± 2.21^s.o %, the “Tb.N (trabecular number)” value is 5.77 ± 1.2^s #/mm, the “Tb.Sp (trabecular separation)” value is 137.6 ± 37^s μ and the “Tb.Th (trabecular thickness)” value worked out at 42.4 ± 6 μ. In data set [1] (setting [3]), the “BFR/BS (bone formation rate)” value is 9.48 ± 1.43^o μ/d × 100, the “BFR/TV (bone formation rate)” value came out at 35.51 ± 9.14 %/y, the “BV/TV (cancellous bone volume)” value is 22.3 ± 3^s % and the “MAR (mineral apposition rate)” value is 0.66 ± .11 μ/d. In addition, in data set [1] (setting [3]), the “MS/BS (mineralizing surface)” value is listed as 14.47 ± 1.78^o %, the “Tb.N (trabecular number)” value was 6.07 ± .87^s #/mm, the “Tb.Sp (trabecular separation)” value is listed as 131 ± 23^s.o μ and the “Tb.Th (trabecular thickness)” value is listed as 36.8 ± 3^s μ. In addition, in data set [1] (setting [4]), the “BFR/BS (bone formation rate)” value was 9.44 ± 2.4^o μ/d × 100, the “BFR/TV (bone formation rate)” value is 29.94 ± 8.7 %/y, the “BV/TV (cancellous bone volume)” value is 22.1 ± 5.2^s % and the “MAR (mineral apposition rate)” value was 0.72 ± .08 μ/d. Also, in data set [1] (setting [4]), the “MS/BS (mineralizing surface)” value was 13.05 ± 2.44^s %, the “Tb.N (trabecular number)” value is on record as 5.24 ± .82^s #/mm, the “Tb.Sp (trabecular separation)” value is 153.1 ± 35^s μ and the “Tb.Th (trabecular thickness)” value is recorded as 42.4 ± 7.3 μ. Moreover, in data set [1] (continuous treatment), the “dynamic parameters MS/BS, MAR, BFR/BS, BFR/TV of L-1 vertebra (in words)” value (shortened to “dynamic parameters MS/BS, MAR, BFR/BS”) is “decreased MS/BS and BFR in a dose-dependent manner to Sham and EE2 levels”; the “BV/TV, trabecular thickness, trabecular number of L-1 vertebra (in words)” value (“BV/TV, trabecular thickness” for short) is “little effect on BV/TV, trabecular thickness, or trabecular number”; the “MAR of L-1 vertebra (in words)” value is “not different from OVX”.

`C#C[C@]1(O)CC[C@H]2[C@@H]3CCc4cc(O)ccc4[C@H]3CC[C@@]21C` [EE2, 17α-ethynyl estradiol]: in data set [1] (setting [5]), the “BFR/BS (bone formation rate)” value is 8.76 ± 1.99^o μ/d × 100, the “BFR/TV (bone formation rate)” value worked out at 32.76 ± 6.9 %/y, the “BV/TV (cancellous bone volume)” value was 21.8 ± 4.1^s % and the “MAR (mineral apposition rate)” value is 0.58 ± .05^s.o μ/d. Besides, in data set [1] (setting [5]), the “MS/BS (mineralizing surface)” value is on record as 14.97 ± 3.07^o %, the “Tb.N (trabecular number)” value was 6.20 ± .66 #/mm, the “Tb.Sp (trabecular separation)” value stood at 127.5 ± 17.5 μ and the “Tb.Th (trabecular thickness)” value was 35.3 ± 5.6^s μ. In addition, in data set [1] (continuous treatment), the “BV/TV, trabecular thickness” value is reported as “little effect on BV/TV, trabecular thickness, or trabecular number”; the “MAR of L-1 vertebra (in words)” value was “lowered MAR to below OVX, Sham, and compound 1a”. Also, in the data set with ovariectomized rats, the uterine wet weight result is reported as “increased uterine weight above OVX to Sham levels”.

For “PTH: N-terminal 1-34 fragment of human parathyroid hormone, hPTH(1-34, Sequence ID No. 3); PTH/vehicle = 45 days PTH then vehicle”, in data set [1] (setting [5]), the “BFR/BS (bone formation rate)” value was 25.1 ± 5^s,o μ/d × 100, the “BFR/TV (bone formation rate)” value is given as 94.5 ± 29.7^s.o %/y, the “BV/TV (cancellous bone volume)” value is on record as 38.9 ± 9^o % and the “MAR (mineral apposition rate)” value is reported as 1.0 ± .11^s,o μ/d. In data set [1] (setting [5]), the “MS/BS (mineralizing surface)” value was 24.82 ± 2.62^s,o %, the “Tb.N (trabecular number)” value is reported as 6.07 ± .86^s #/mm, the “Tb.Sp (trabecular separation)” value is reported as 104.1 ± 29^o μ and the “Tb.Th (trabecular thickness)” value is given as 63.8 ± 11^s,o μ. For the same molecule, in data set [1] (setting [6]), the “BFR/BS (bone formation rate)” value is 17.68 ± 5.9^s μ/d × 100, the “BFR/TV (bone formation rate)” value is recorded as 55.17 ± 20.3^s %/y, the “BV/TV (cancellous bone volume)” value is 20.1 ± 3.9^s % and the “MAR (mineral apposition rate)” value is reported as 0.89 ± .09^s,o μ/d. In data set [1] (setting [6]), the “MS/BS (mineralizing surface)” value was 19.62 ± 4.88^s %, the “Tb.N (trabecular number)” value is recorded as 5.16 ± .98^s #/mm, the “Tb.Sp (trabecular separation)” value is reported as 160 ± 32^s μ and the “Tb.Th (trabecular thickness)” value was 39.4 ± 7^s μ. For the same molecule, the “dynamic parameters MS/BS, MAR, BFR/BS” value in data set [1] (PTH (1-34) discontinued (PTH/v) or switched to compound 1a (PTH/0.3) at 45 days) is “lowered MS/BS, BFR/BS and BFR/TV to OVX levels”. Further, the “BV/TV and trabecular thickness of L-1 vertebra (in words)” value in data set [1] (PTH (1-34) discontinued or switched to compound 1a at 45 days) was “decreased BV/TV and trabecular thickness to below Sham”. In data set [1] (continuous treatment), the “dynamic parameters MS/BS, MAR, BFR/BS” value is “increased MS/BS, MAR, BFR/BS and BFR/TV to significantly above Sham and OVX”; the “BV/TV, trabecular thickness” value is “improved BV/TV and trabecular thickness above OVX”.
